Test results taken from paper doi:10.1101/2024.07.10.602875v1 (biorxiv, 2024).

Key:
TgIMPα [1] = target: T1, TgIMPα (Toxoplasma gondii, UniProt A0A125YID0); experiment: AlphaScreen, inhibition of IMPα:NLS interaction; assay type: binding
T1 sequence (A0A125YID0 1-545): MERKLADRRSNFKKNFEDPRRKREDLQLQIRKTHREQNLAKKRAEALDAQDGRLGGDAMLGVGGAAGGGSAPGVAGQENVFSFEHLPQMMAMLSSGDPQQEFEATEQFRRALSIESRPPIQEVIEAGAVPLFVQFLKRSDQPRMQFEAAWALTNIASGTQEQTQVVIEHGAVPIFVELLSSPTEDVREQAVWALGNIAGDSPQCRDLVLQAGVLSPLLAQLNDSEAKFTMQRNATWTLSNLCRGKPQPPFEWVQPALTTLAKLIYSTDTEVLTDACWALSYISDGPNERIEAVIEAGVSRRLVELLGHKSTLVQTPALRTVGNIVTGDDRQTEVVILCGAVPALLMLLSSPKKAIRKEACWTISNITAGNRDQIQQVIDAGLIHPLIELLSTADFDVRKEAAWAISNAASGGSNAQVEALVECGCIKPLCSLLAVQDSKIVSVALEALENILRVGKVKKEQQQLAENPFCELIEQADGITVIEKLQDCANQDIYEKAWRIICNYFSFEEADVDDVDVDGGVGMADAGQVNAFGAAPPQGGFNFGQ

TgIMPα [2] = target: T1, TgIMPα; experiment: intrinsic tryptophan fluorescence quenching; assay type: binding
T. gondii = experiment: microbe, parasite or virus in culture; parameters: species or system T. gondii RH-luciferase in HFF; details: Toxoplasma gondii, read-out: Cell viability IC50 (µM)
PfIMPα = target: T2, PfIMPα (Plasmodium falciparum, UniProt Q8IAW0); experiment: intrinsic tryptophan fluorescence quenching; assay type: binding
T2 sequence (Q8IAW0 1-545): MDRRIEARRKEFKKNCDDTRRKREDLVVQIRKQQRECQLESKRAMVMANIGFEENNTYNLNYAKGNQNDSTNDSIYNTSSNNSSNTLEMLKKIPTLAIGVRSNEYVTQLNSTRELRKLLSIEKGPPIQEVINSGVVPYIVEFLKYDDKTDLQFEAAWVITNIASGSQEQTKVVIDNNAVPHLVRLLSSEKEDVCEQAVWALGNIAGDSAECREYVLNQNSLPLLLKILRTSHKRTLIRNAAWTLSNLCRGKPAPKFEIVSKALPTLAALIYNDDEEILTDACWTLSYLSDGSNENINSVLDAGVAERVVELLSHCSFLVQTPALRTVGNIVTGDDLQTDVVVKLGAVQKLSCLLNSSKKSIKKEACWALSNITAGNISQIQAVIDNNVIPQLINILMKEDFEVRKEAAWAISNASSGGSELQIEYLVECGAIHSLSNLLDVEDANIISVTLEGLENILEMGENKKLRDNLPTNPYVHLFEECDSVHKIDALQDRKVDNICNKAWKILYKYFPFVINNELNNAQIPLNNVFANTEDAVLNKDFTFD

Row | SMILES | IC50 (TgIMPα [1]) [µM] | IC50 (TgIMPα [2]) [µM] | IC50 (T. gondii) [µM] | IC50 (PfIMPα) [µM]
1 | Cc1ccc(S(=O)(=O)/C=C/C#N)cc1 [Bay 11-7082] | 8.2 ± 1.3 | 17.5 ± 3.3 | 1.06 ± 0.07 | –
2 | CC(C)(C)c1ccc(S(=O)(=O)/C=C/C#N)cc1 [Bay 11-7085] | – | 27.7 ± 9.4 | – | 19.9 ± 3.7
